For the experiment, the system named is Sarcocystis neurona strain SN3. Kind of experiment: Microtiter Monolayer Disruption Assay (MMDA), inhibition of merozoite-induced cell destruction (CPE). The experiment is classed as cell-based. As to conditions: S. neurona merozoites 50,000/well on BT cell monolayers, compound added 2 hours after infection, crystal violet readout, read-out: Percent Inhibition of Cell Destruction. Here is the method: In order to determine the scope of protection provided by praziquantel, in vitro testing was conducted. Sarcocystis neurona was evaluated for its sensitivity to this compound. Strain SN3 of Sarcocystis neurona was used.
Bovine turbinate (BT) cells were used for all in vitro tests. Cells were grown to confluency in 25 cm^2 flasks in RMPI 1640 media supplemented with 10% v/v fetal bovine serum (FBS), 100 Units of penicillin (g/mL), […] and 5×10^−2 mM of 2-mercaptoethanol. After cell confluence was obtained, cells were maintained in the same media with reduced FBS (2% v/v). Cell cultures were incubated at 37 C. in a humidified atmosphere containing 5% carbon dioxide and 95% air.
For growth of the parasite, BT cell monolayers were infected with parasites and examined with an inverted microscope for the development of lesions (cytopathic effect, “CPE”) or the presence of many extracellular merozoites. Once lesions were observed, or many extracellular parasites were present, the monolayer was scraped with the tip of a 5 mL pipette and 1 to 3 drops of the merozoite-containing fluid was transferred to two flasks of fresh BT cells. […]
This assay was used to determine if the parasites or compound were toxic for BT cells. […] Each well was visually monitored daily and the assay was stopped when 90-100% of the untreated merozoite infected cells had lysed (90-100% CPE). […]

SMILES strings stand for the structures.

For orientation: inhibition means the percentage by which the read-out fell short of the control. Consider `O=C(C1CCCCC1)N1CC(=O)N2CCc3ccccc3C2C1` (centres unmarked) [Praziquantel, praziquantel], for which, where the note is “10 μg/mL”, the inhibition at 10 µg/mL was 51%. Also, for the setting “20 μg/mL”, the inhibition at 20 µg/mL was 69%.

The values above are taken from patent US20020143018A1 (priority 2000, published 2002).
